Data set [1] addresses T1, DEVDase activity in mouse liver protein extracts (Mus musculus, UniProt P70677).
T1 construct: Casp3 activity was assessed in liver protein extracts from mice; from tissue; host or cells: mouse liver (C57BL6/J), protein extracts
T1 sequence (P70677 29-175 limits assumed): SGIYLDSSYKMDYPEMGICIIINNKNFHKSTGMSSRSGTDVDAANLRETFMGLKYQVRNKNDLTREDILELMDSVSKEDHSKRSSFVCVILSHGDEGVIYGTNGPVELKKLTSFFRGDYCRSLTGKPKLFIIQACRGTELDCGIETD
T1 sequence (P70677 176-277 limits assumed): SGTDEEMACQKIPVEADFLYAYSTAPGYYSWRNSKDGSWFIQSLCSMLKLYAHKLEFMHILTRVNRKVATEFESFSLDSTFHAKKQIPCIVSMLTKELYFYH
Nature of the data set: DEVDase activity in mouse liver protein extracts with added inhibitors. In kind it is biochemical. The note with it: inhibitor added to extracts: 1 μM Q-VD-OPh, 0.1 μM bortezomib or 0.1 μM epoxomicin. As to the method: (§1) Activity assays for RCasp1 (Biovision, Millpitas, CA, USA) and RCasp3 (Enzo Lifesciences) used Z-Tyr-Val-Ala-Asp-7-Amino-4-trifluoromethylcoumarin (z-YVAD-AFC: Enzo LifeSciences,), and Ac-Asp-Glu-Val-Asp-7-Amino-4-trifluoromethylcouramin (Ac-DEVD-AFC: Enzo LifeSciences), respectively. To confirm that these substrates report caspase activity and not proteasomal caspase-like enzyme activity, 1 μM pan-caspase inhibitor, Q-VD-OPh (Sigma-Aldrich) or 0.1 μM proteasome inhibitor, bortezomib (Calbiochem, MA, USA) were tested on 20 nM RCasp3 or 40–60 μg of mouse liver protein extracts.
The caspase-like activity of the proteasome was measured using 10 μM Ac-Nle-Pro-Nle-Asp-AMC (Ac-nLPnLD-AMC, Enzo Lifesciences) as described for caspase activity assays except for the use of 10 mM DTT and a 7-amino-4-methylcoumarin (AMC, Sigma-Aldrich) standard curves. Mouse liver protein extracts were treated with 0.1 μM of epoxomicin (Enzo Lifesciences), bortezomib, 1 μM of Q-VD-OPh, or equal volumes of DMSO for 20 mins on ice before measuring proteasome or caspase activities.

A further data set has as its target T2, RCasp3 (Homo sapiens, UniProt P42574).
T2 construct: Active Casp6 and Casp3 represented >99% of the purified enzyme; purchased Enzo Lifesciences
T2 sequence (P42574 29-175 limits assumed): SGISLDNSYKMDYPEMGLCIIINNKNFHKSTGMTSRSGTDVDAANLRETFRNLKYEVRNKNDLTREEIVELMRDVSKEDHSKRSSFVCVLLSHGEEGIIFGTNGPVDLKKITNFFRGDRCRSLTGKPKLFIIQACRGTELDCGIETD
T2 sequence (P42574 176-277 limits assumed): T1 sequence (P70677 176-277 limits assumed) with T3V, E5D, E6D, Q10H, S46A, L50Q, H53D, L77F, S79A
Nature of the data set: in vitro fluorogenic Casp3 activity assay (Ac-DEVD-AFC). In kind it is biochemical. The conditions noted are these: 20 nM RCasp3; 1 μM Q-VD-OPh or 0.1 μM bortezomib; Fig. 5c.

Data set [2] has as its target T3, RCasp6 (Homo sapiens, UniProt P55212).
T3 construct: The zymogen is cleaved at three distinct sites to remove the prodomain and linker regions in order to obtain an active enzyme; His tag (C); made in house; host or cells: E. coli BL21 (DE3)pLysS
T3 sequence (P55212 24-179 limits assumed): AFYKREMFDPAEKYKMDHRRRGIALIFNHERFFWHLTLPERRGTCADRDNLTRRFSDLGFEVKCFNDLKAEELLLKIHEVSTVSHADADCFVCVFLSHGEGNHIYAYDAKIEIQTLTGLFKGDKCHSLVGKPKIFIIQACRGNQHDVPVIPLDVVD
T3 sequence (P55212 194-293 limits assumed): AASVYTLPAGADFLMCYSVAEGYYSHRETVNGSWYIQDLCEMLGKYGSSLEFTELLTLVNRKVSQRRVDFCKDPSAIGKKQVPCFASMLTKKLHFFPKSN
Nature of the data set: in vitro fluorogenic Casp6 activity assay (Ac-VEID-AFC). The format is biochemical. The conditions noted are these: 10 μM DTT; Fig. 1c.

The target of data set [3] is T4, Casp6 (Homo sapiens, UniProt P55212).
T4 sequence (P55212 24-179 limits assumed): T3 sequence (P55212 24-179 limits assumed)
T4 sequence (P55212 194-293 limits assumed): T3 sequence (P55212 194-293 limits assumed)
Put plainly: Casp6 activity in Casp6p20p10-transfected HCT116 cells. In kind it is cell-based. The arrangement: for active Casp6p20 subunit (p20), full length Casp6 lacking its pro-domain; Casp6p20p10 (p20p10); expressed in transfected cells; host or cells: HCT116 human colon carcinoma cells. The note with it: transfected HCT116, 2 hrs; 100 μM and 1 mM methylene blue, 50 μM azure A, 10 μM and 100 μM azure B. As to the method:
as §1
Human colon carcinoma (HCT116) cells, cultured as recommended (ATCC: Manassas, VA, USA), were transfected with 1 μg pCep4βCasp6p20p10 and 8 μg polyethyleneimine (Polysciences Inc., Warrington, PA, USA), and grown 24 hrs before treatment with PBS and phenothiazines for 2 hours. Human primary neurons were cultured from fetal brain cortical areas obtained under ethical guidelines and approved by the McGill University’s institutional review board as previously described. Human primary neurons plated in poly-L-lysine -coated 6-well plates at a density of 3 × 10^6 cells/mL were serum-deprived for 2 hours in the presence of phenothiazines or an equivalent volume of PBS. Proteins were harvested in cell lysis buffer (CLB; 50mM HEPES, 0.1% CHAPS, 0.1mM EDTA).
(§2) The 10630 (1:10,000) and GN60622 (1:10,000) neoepitope antibodies against the p20 subunit of active Casp6[16] and Tub∆Casp6[23], respectively, were generated in our laboratory. The β-actin clone AC-15 (1:5000, Sigma-Aldrich), Casp6 p10 clone B93-4 (1:250, BD Canada, Mississauga, ON, CA), Casp3, and full-length α-tubulin (1:1000, Cell Signaling Technology Inc., Danvers, MA, USA) antibodies were diluted in 5% non-fat dry milk in Tris-buffered saline containing 0.1% Tween-20 (Sigma-Aldrich). […] Secondary anti-mouse conjugated to alkaline phosphatase (Jackson Immunoresearch Laboratories Inc., West Grove, PA) was developed with nitro-blue tetrazolium (ThermoSci) and 5-bromo-4-chloro-3′-indolyphosphate (ThermoSci).

Data set [4] concerns the target T3, RCasp6. Nature of the data set: inhibitor kinetic studies (Michaelis-Menten / Lineweaver-Burk) on RCasp6. The format is biochemical.
A further data set has as its system human primary neurons. Put plainly: cell viability (microscopy) in human primary neurons. The note with it: phase contrast microscopy, 2 hours. The format is cell-based. Here is the method:
(§3) HCT116 cells, plated at a density of 1 × 10^5 cells/well and human neurons, plated at a density of 6 × 10^6 cells/well on poly-L-lysine were treated with PBS or phenothiazines for 2 hours. The media was replaced before acquiring images with the Nikon Eclipse Ti microscope and the NIS-Elements (Version 3.10) software. MTT assays: Cells were plated in 96-well plates at 1 × 10^4 or 1 × 10^5 cells per well for 24 hours before treatments with phenothiazines or PBS. After 2 hours, fresh media containing […] MTT (3-(4,5-dimethylthiazol-2-yl)-2,5-diphenyltetrazolium bromide) (Sigma-Aldrich) was added and the cells were incubated for 4 hours at 37 °C in 5% CO2. The media was removed, formazan crystals were dissolved in DMSO, and the absorbance was measured at 560 nm and 670 nm using the BioTek Synergy H4 plate reader.

In data set [5] the target is T3, RCasp6. Nature of the data set: in vitro tubulin cleavage assay with RCasp6. The format is biochemical. The note with it: 20 nM RCasp6, 10 μM DTT, 10 hours, western blot densitometry; read-out: IC50, cleavage of tubulin by RCasp6 (Tub∆Casp6 relative to total tubulin). Here is the method:
Phenothiazines were mixed with 20 nM RCasp6 or RCasp3, 10 μM DTT, and 7.5 nM BSA in SB and 36 μg HCT116 protein extracts added before incubation at 37 °C for 10 hours, western blotting, and densitometry for tubulin-cleaved by Casp6 (Tub∆Casp6) and total tubulin as described in the western blot section. The IC50 was determined by a non-linear regression fit for log inhibitor vs caspase activity with a Hill slope of −1 using GraphPad Prism 5.0.
as §2

The target of data set [6] is T4, Casp6. Nature of the data set: Casp6 activity in serum-deprived human primary neuron cultures. The format is cell-based. The arrangement: endogenous in cells; host or cells: human primary neurons from fetal brain cortex. The note with it: serum-deprived neurons, 2 hrs, 100 μM methylene blue, 50 μM azure A, 10 μM azure B.
In the next data set the test system is HCT116 cells. Nature of the data set: cell viability (microscopy and MTT) in HCT116 cells. In kind it is cell-based, human. The note with it: 2 hours. As to the method:
as §3

The target of data set [7] is T5, caspase-like activity of the proteasome (Mus musculus, UniProt Q60692).
T5 construct: nLPnLDase activity in mouse liver protein extracts; from tissue; host or cells: mouse liver protein extracts
T5 sequence (Q60692 1-238): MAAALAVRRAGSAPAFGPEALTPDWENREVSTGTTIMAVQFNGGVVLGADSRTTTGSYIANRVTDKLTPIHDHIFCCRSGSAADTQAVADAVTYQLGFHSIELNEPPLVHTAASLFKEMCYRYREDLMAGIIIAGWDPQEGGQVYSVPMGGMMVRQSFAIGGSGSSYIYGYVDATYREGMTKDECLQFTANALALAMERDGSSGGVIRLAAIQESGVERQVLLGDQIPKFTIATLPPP
Nature of the data set: proteasome assay (Ac-nLPnLD-AMC). In kind it is biochemical. The conditions noted are these: mouse liver protein extracts, 0.1 μM bortezomib; supplementary Fig. S2. As to the method:
The caspase-like activity of the proteasome was measured using 10 μM Ac-Nle-Pro-Nle-Asp-AMC (Ac-nLPnLD-AMC, Enzo Lifesciences) as described for caspase activity assays except for the use of 10 mM DTT and a 7-amino-4-methylcoumarin (AMC, Sigma-Aldrich) standard curves. Mouse liver protein extracts were treated with 0.1 μM of epoxomicin (Enzo Lifesciences), bortezomib, 1 μM of Q-VD-OPh, or equal volumes of DMSO for 20 mins on ice before measuring proteasome or caspase activities. […]
equated at 100% activity of the enzyme. Activity assays for recombinant Casp3 was done similarly to recombinant Casp6, except the substrate used was Ac-Asp-Glu-Val-Asp-7-Amino-4-trifluoromethylcouramin (Ac-DEVD-AFC: Enzo Life Sciences, NY, USA).
Proteasome assay: The caspase-like activity of the proteasome was measured using the substrate Ac-Nle-Pro-Nle-Asp-AMC (Enzo LifeSciences, NY, USA) at a final concentration of 10 µM in Stennicke’s buffer in the presence of 10 mM DTT. […]
Statistical Analysis: For Caspase-3 activity assays, data represent the mean ± SEM of 3 livers from 3 animals and was analyzed using a one-way ANOVA with Dunnett’s post hoc test (*** p < 0.001 in DMSO, and ### p < 0.001 in bortezomib) comparing all samples to LPS/GALN-treated mice in the absence of methylene blue, while proteasome assays were analyzed using […]

SMILES strings stand for the structures. Numbering of substitutions follows the chain as printed.

Consider `CC(C)[C@H](NC(=O)c1ccc2ccccc2n1)C(=O)N[C@@H](CC(=O)O)C(=O)COc1c(F)cccc1F` [Q-VD-OPh], for which the “DEVDase activity in LPS/GALN-treated mouse liver protein extracts” value in data set [1] is recorded as “abrogated”. Besides, the “RCasp3 activity in vitro” value on RCasp3 is on record as “abrogated”.
Regarding `CN(C)c1ccc2nc3ccc(N)cc3[s+]c2c1` [azure A, (7-aminophenothiazin-3-ylidene)-dimethylazanium;chloride], on RCasp6 [2], the “concentration necessary for a significant inhibition of Casp6 activity” value worked out at 10 nM and the “inhibition of Casp6 activity” value was “inhibited Casp6 activity in a dose dependent manner”. Further, the “Casp6 activity on the Ac-VEID-AFC peptide substrate” value at Casp6 [3] was “trend towards inhibition but it did not reach statistical significance”. Also, at RCasp6 [4] (Lineweaver Burk plot, Km increasing, Vmax the same), the mode of inhibition result is recorded as “competitive”. At RCasp6 [4] (competitive inhibition model, nonlinear regression, Ac-VEID-AFC substrate, 10 nM RCasp6), this compound registered a Ki of 420 nM. Besides, the “concentration above which cell body size and axonal fragmentation increased” value in the data set on human primary neurons is listed as “above 50 μM”. Moreover, the concentration for half-maximal inhibition (IC50) at RCasp6 [5] turned out to be 500 nM. On Casp6 [6], the VEIDase activity result is reported as “significantly inhibited”. In addition, the “Tub∆Casp6/Tub levels” value at Casp6 [6] (vs PBS-treated serum-deprived neurons) is listed as “significantly decreased”. Besides, the “concentration above which toxicity was shown” value in the data set on HCT116 cells (HCT116, MTT assay) is listed as “above 50 μM”. In addition, the “concentration at which cells retained morphology and confluence comparable to PBS-treated controls” value in the data set on HCT116 cells (HCT116, phase contrast microscopy) came to 50 μM.
Regarding `CC(C)C[C@H](NC(=O)[C@H](Cc1ccccc1)NC(=O)c1cnccn1)B(O)O` [bortezomib], in [7], the nLPnLDase proteasomal activity result is recorded as “significantly inhibited”. Besides, at RCasp3, the “RCasp3 activity in vitro” value is reported as “did not inhibit”.
In the case of `CC[C@H](C)[C@H](NC(=O)[C@H]([C@@H](C)CC)N(C)C(C)=O)C(=O)N[C@H](C(=O)N[C@@H](CC(C)C)C(=O)[C@@]1(C)CO1)[C@@H](C)O` [epoxomicin], the “DEVDase activity in LPS/GALN-treated mouse liver protein extracts” value in data set [1] is reported as “nor was Casp3 DEVDase activity affected”.

Source of the values: article PMC4585840 (Scientific Reports, 2015).
